Reference: ChEMBL document CHEMBL4619774 (J Med Chem, 2020)

Assays:
[1] = Dose normalized AUC (0 to t) in beagle dog at 75 mg/kg, po via gavage by HPLC-MS/MS analysis; type: ADME, organism-based, Canis lupus familiaris; conditions: in vivo
[2] = Clearance in beagle dog at 1 mg/kg, iv administered as bolus dose by HPLC-MS/MS analysis; type: ADME, organism-based, Canis lupus familiaris; conditions: in vivo
[3] = Dose normalized AUC (0 to t) in Sprague-Dawley rat at 3 mg/kg, po via gavage by HPLC-MS/MS analysis; type: ADME, organism-based; conditions: in vivo
[4] = molecular target: T1, Coagulation factor XI (Homo sapiens, UniProt P03951); test: Inhibition of human F11a using D-Leu-Pro-Arg*Rh110-D-Pro as substrate preincubated for 60 mins followed by substrate addition and measured after 60 mins by fluorescence assay
T1 sequence (P03951 19-387 limits assumed): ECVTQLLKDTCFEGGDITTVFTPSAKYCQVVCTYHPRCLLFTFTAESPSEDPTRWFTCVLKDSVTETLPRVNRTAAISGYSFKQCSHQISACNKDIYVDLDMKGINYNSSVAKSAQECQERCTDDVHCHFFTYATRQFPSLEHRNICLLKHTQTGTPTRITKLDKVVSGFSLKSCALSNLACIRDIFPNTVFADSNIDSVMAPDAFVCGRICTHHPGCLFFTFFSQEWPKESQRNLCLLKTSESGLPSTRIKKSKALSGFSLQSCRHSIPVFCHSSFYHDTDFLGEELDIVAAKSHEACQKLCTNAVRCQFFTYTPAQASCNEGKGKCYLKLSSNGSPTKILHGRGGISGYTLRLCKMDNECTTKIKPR
T1 sequence (P03951 388-625 limits assumed): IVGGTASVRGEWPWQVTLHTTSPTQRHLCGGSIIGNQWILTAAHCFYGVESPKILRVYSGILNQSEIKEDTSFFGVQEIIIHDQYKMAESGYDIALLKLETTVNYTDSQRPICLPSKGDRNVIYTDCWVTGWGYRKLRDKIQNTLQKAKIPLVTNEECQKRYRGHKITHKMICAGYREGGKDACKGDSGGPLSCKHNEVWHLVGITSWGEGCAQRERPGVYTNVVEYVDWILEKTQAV

[5] = Tmax in C57BL/6 mouse at 100 mg/kg, po by LC-MS/MS analysis; type: ADME, organism-based; conditions: in vivo
[6] = Clearance in Sprague-Dawley rat at 1 mg/kg, iv by HPLC-MS/MS analysis; type: ADME, organism-based; conditions: in vivo
[7] = Oral bioavailability in C57BL/6 mouse at 100 mg/kg by LC-MS/MS analysis; type: ADME, organism-based; conditions: in vivo
[8] = Dose normalized Cmax in Sprague-Dawley rat at 100 mg/kg, po via gavage by HPLC-MS/MS analysis; type: ADME, organism-based; conditions: in vivo
[9] = Dose normalized AUC in C57BL/6 mouse at 3 mg/kg, po by LC-MS/MS analysis; type: ADME, organism-based; conditions: in vivo
[10] = molecular target: Prostaglandin G/H synthase 1 (Homo sapiens, UniProt P23219); test: Inhibition of COX1 (unknown origin)
Prostaglandin G/H synthase 1, sequence (P23219 whole entry): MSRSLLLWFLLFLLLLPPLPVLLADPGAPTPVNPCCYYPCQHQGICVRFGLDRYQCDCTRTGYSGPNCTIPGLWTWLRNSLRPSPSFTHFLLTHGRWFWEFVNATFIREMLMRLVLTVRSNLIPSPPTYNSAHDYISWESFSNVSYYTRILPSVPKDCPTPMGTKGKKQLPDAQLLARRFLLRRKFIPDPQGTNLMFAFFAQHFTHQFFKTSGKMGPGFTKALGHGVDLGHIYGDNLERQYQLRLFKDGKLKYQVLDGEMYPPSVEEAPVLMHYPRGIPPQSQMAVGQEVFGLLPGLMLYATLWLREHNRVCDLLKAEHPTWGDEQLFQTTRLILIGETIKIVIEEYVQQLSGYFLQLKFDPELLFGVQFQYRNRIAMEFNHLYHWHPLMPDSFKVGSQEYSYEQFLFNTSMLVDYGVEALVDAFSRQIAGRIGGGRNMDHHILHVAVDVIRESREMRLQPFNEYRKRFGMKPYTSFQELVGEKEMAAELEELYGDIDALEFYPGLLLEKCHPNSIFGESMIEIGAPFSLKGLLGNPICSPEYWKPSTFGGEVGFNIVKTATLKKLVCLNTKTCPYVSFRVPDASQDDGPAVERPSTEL

[11] = Tmax in C57BL/6 mouse at 0.4 mg/kg, iv bolus injection or 3 mg/kg, po by LC-MS/MS analysis; type: ADME, organism-based; conditions: in vivo
[12] = Dose normalized AUC (0 to t) in Sprague-Dawley rat at 100 mg/kg, po via gavage by HPLC-MS/MS analysis; type: ADME, organism-based; conditions: in vivo
[13] = Apparent permeability across apical to basolateral side in MDCK-MDR1 cells; type: ADME, cell-based, Canis lupus familiaris; conditions: dog
[14] = molecular target: Coagulation factor X (Homo sapiens, UniProt P00742); type: single protein
Coagulation factor X, sequence (P00742 41-179 limits assumed): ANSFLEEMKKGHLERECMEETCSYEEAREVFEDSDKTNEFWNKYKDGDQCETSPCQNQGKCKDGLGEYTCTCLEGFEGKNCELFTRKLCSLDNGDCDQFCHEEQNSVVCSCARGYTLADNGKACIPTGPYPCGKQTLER
Coagulation factor X, sequence (P00742 235-488 limits assumed): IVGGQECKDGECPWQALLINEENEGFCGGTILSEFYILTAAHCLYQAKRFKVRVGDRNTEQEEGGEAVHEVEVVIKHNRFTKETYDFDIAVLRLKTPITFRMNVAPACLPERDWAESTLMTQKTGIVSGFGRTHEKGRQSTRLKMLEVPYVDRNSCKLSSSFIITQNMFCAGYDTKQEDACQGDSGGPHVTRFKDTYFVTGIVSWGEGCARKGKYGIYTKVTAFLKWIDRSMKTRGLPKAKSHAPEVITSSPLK

[15] = molecular target: Tissue-type plasminogen activator (Homo sapiens, UniProt P00750); type: single protein
Tissue-type plasminogen activator, sequence (P00750 whole entry, the tested form may be a part): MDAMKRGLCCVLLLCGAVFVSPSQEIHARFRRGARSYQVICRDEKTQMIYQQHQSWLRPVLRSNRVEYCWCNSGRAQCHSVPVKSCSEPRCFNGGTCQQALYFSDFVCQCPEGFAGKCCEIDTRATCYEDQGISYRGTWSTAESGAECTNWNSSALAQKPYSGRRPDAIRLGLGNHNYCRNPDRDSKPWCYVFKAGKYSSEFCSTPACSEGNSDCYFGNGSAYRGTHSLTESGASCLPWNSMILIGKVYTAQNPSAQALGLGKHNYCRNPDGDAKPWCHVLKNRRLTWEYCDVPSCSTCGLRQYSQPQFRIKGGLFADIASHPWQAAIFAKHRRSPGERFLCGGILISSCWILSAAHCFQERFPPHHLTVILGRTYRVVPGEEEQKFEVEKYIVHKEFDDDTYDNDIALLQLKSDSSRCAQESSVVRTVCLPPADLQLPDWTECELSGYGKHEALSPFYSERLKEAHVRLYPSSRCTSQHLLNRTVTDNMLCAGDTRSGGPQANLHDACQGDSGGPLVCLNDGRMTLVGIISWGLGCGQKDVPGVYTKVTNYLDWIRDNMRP

[16] = molecular target: T1, Coagulation factor XI; test: Inhibition of […] human plasma F11a catalytic domain expressed in Escherichia coli strain BL21(DE3) using D-Leu-Pro-Arg*Rh110-D-Pro as substrate preincubated for 60 mins followed by substrate addition and measured after 60 mins by fluorescence assay
[17] = molecular target: T2, Peroxisome proliferator-activated receptor gamma (Homo sapiens) (UniProt P37231); test: Binding affinity to PPARgamma (unknown origin) at 10 uM
T2 sequence (whole entry): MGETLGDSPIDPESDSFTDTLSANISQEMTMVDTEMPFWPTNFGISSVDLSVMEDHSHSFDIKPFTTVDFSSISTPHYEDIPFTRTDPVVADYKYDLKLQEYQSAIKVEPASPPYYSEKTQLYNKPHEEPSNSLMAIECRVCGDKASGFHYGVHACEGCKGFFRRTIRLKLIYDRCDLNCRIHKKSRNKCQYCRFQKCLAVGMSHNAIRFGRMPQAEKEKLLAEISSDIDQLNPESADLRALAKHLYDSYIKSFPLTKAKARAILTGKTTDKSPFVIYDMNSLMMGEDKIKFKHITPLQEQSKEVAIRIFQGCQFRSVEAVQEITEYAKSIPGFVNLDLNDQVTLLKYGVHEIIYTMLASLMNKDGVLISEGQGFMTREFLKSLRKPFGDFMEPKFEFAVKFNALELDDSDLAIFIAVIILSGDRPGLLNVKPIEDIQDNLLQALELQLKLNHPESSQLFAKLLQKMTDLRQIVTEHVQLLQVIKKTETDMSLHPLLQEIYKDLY

[18] = Efflux ratio of apparent permeability from basolateral to apical side over apical to basolateral side in MDCK-MDR1 cells; type: ADME, cell-based, Canis lupus familiaris; conditions: dog
[19] = molecular target: Urokinase-type plasminogen activator (Homo sapiens, UniProt P00749); type: single protein
[20] = Dose normalized Cmax in Sprague-Dawley rat at 3 mg/kg, po via gavage by HPLC-MS/MS analysis; type: ADME, organism-based; conditions: in vivo
[21] = Oral bioavailability in Sprague-Dawley rat at 30 mg/kg via gavage by HPLC-MS/MS analysis; type: ADME, organism-based; conditions: in vivo
[22] = Dose normalized Cmax in C57BL/6 mouse at 0.4 mg/kg, iv bolus injection or 3 mg/kg, po by LC-MS/MS analysis; type: ADME, organism-based; conditions: in vivo
[23] = Dose normalized AUC in C57BL/6 mouse at 100 mg/kg, po by LC-MS/MS analysis; type: ADME, organism-based; conditions: in vivo
[24] = Dose normalized Cmax in C57BL/6 mouse at 100 mg/kg, po by LC-MS/MS analysis; type: ADME, organism-based; conditions: in vivo
[25] = tested on: Plasma; test: Anticoagulant activity in human plasma assessed as concentration required to double the activated partial thromboplastin time incubated for 3 mins followed by calcium chloride addition by aPTT-s reagent based automated coagulometric method; type: functional
[26] = molecular target: T3, Coagulation factor VII (Homo sapiens, UniProt P08709); type: single protein
T3 sequence (P08709 whole entry): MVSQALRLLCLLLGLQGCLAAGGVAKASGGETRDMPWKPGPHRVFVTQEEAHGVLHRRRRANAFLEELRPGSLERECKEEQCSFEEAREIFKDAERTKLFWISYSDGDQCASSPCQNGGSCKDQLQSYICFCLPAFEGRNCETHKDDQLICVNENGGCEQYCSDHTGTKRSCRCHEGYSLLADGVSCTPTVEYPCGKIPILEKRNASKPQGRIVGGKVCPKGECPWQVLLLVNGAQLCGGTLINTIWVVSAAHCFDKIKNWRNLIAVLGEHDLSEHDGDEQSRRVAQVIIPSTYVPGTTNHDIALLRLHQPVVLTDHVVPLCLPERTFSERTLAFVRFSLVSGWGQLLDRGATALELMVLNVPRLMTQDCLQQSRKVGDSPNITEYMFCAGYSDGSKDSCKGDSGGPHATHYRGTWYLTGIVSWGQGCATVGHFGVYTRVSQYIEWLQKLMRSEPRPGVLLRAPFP

[27] = Dose normalized Cmax in Sprague-Dawley rat at 30 mg/kg, po via gavage by HPLC-MS/MS analysis; type: ADME, organism-based; conditions: in vivo
[28] = Oral bioavailability in beagle dog at 75 mg/kg via gavage by HPLC-MS/MS analysis; type: ADME, organism-based, Canis lupus familiaris; conditions: in vivo
[29] = molecular target: Bile salt export pump (Homo sapiens, UniProt O95342); test: Inhibition of BSEP (unknown origin)
Bile salt export pump, sequence (O95342 whole entry): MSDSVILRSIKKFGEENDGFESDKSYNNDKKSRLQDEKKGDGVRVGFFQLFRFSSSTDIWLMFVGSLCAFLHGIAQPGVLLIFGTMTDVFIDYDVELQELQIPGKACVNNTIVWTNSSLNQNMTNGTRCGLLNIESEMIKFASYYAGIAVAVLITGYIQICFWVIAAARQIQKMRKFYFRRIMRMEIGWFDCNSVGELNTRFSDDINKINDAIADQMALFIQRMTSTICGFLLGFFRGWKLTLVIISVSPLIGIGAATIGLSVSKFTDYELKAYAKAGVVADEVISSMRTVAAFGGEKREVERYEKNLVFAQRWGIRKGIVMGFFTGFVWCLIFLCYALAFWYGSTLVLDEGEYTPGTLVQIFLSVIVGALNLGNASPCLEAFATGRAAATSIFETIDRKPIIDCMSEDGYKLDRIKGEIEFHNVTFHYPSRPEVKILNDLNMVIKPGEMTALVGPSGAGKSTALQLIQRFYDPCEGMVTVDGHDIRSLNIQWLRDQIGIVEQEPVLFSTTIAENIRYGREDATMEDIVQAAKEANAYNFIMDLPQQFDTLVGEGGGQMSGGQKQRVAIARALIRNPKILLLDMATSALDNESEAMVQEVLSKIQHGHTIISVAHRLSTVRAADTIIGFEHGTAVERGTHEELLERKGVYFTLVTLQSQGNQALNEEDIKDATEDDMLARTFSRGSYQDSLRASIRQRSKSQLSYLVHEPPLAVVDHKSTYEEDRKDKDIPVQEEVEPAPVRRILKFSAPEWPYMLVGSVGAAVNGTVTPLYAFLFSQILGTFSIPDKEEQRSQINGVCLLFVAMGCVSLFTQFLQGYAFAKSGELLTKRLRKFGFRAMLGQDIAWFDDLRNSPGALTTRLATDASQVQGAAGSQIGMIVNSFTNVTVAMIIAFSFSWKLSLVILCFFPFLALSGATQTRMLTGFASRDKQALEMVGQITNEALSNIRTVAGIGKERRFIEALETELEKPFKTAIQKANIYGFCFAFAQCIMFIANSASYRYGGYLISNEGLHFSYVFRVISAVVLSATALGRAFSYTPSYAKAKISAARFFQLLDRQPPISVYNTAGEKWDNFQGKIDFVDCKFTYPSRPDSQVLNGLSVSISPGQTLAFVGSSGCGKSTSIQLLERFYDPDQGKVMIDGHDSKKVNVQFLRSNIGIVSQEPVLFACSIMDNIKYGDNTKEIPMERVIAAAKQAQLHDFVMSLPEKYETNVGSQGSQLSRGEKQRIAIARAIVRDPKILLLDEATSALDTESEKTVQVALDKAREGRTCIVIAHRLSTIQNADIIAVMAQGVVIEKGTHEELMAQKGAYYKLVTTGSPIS

[30] = Oral bioavailability in C57BL/6 mouse at 3 mg/kg by LC-MS/MS analysis; type: ADME, organism-based; conditions: in vivo
[31] = Dose normalized AUC (0 to t) in Sprague-Dawley rat at 30 mg/kg, po via gavage by HPLC-MS/MS analysis; type: ADME, organism-based; conditions: in vivo
[32] = Half life in Sprague-Dawley rat at 1 mg/kg, iv administered as bolus dose by HPLC-MS/MS analysis; type: ADME, organism-based; conditions: in vivo
[33] = AUC (0 to t) in beagle dog at 1 mg/kg, iv by HPLC-MS/MS analysis; type: ADME, organism-based, Canis lupus familiaris; conditions: in vivo

## CC(C)c1cc(-c2ccc3c(c2)[C@H](N)CO3)cc([C@H](O)Cn2ccc3cccc(C(=O)O)c32)c1
[1]
  AUCt/dose: 2200 nM·h
[2]
  clearance: 4.4 mL/min/kg
[3]
  AUCt/dose: 382 nM·h
[4]
  IC50: 0.4 nM
[5]
  Tmax: 4 h
[6]
  clearance: 9.4 mL/min/kg
[7]
  bioavailability: 100%
[8]
  Cmax/dose: 323 nM
[9]
  AUC/dose: 1297 nM·h
[10]
  IC50: 4300 nM
[11]
  Tmax: 1 h
[12]
  AUCt/dose: 1770 nM·h
[13]
  Papp A→B: 0.4 ×10⁻⁶ cm/s
[14]
  IC50: 1050 nM
[15]
  IC50: 250 nM
[16]
  IC50: 10 nM
[17]
  Activity: 65%
[18]
  efflux ratio: 21.5
[19]
  IC50: 170 nM
[20]
  Cmax/dose: 77 nM
[21]
  bioavailability: 19%
[22]
  Cmax/dose: 494 nM
[23]
  AUC/dose: 260215 nM·h
[24]
  Cmax/dose: 26795 nM
[25]
  2aPTT: 1.3 µM
[26]
  IC50: 3650 nM
[27]
  Cmax/dose: 143 nM
[28]
  bioavailability: 21%
[29]
  IC50: 28000 nM
[30]
  bioavailability: 16%
[31]
  AUCt/dose: 621 nM·h
[32]
  half-life: 6.4 h
[33]
  AUC(0-t): 10.7 µM·h
